Assay results reported in patent US7374748B2, “Pharmaceutical and cosmetic compositions for the protection of the skin from damages induced by sun radiations” (Indena S.p.A., priority 2001, dated 2008).

System: hepatic microsomes
Assay: antioxidant test with CCl4 as pro-oxidant stimulus and hepatic microsomes as target
Assay type: biochemical
Settings: CCl4 as pro-oxidant stimulus, hepatic microsomes as target
Text: They are characterized by excellent antioxidizing and antiinflammatory properties.

vitamin E
LC50 (antioxidant activity): 30.0 micrograms per ml
